Laboratory results reported in patent US9445605B2, “Method for disinfection or infection control against a non-enveloped virus” (Hiroshima University, priority 2006, dated 2016).

Key:
[1] = tested on: Coxsackie virus group B, type 5; experiment: Coxsackie virus infectivity after reagent treatment (TCID50 in FL cells); type: cell-based
Description: The FL cells were infected with the virus, and a 50% infection dose (unit: 50% tissue culture infectious dose [TCID50]) was calculated.
To eliminate the influence of serum contained in original viruses, a virus solution was previously 50 times diluted with PBS.

[2] = tested on: Adenovirus (nonproliferating, adenovirus type-5-derived); experiment: Adenovirus infectivity after reagent treatment (fluorescent staining of FL cells); type: cell-based
Description: Monolayer FL cells (cell line contaminated with HeLa cells (derived from human cervical cancer epithelial cells)) on the cover slip (9×28 mm) were washed with PBS one time and then infected with a 50 μL of virus solution. After adsorption for 1 hour, the cells were washed with PBS one time, and then a maintenance solution (the same as the diluent) was added, followed by culture.
Two days after, fluorescent staining was performed with anti-adenovirus antibody (monoclonal antibody: Chemicon MAB805) and Alexa Fluor 488-labeled anti-mouse IgG antibody (SantaCruz Biotechnology), and positive cells were counted in a field of view under a fluorescent microscope (400 times) (average of 20 fields of view was calculated).

Feline calicivirus = Feline calicivirus infectivity after reagent treatment (TCID50 in CRFK cells); type: cell-based; conditions: equal amounts of virus and reagent, 3 minutes at room temperature
Description: To eliminate the influence of serum contained in the original virus, a virus solution was previously 5 times diluted with a diluent (Eagle's minimum essential medium, penicillin G, streptomycin). Equal amounts (35 μL) of the diluted virus solution and each reagent were mixed and allowed to react at room temperature for 3 minutes. Then, a ten-fold dilution series was prepared using the diluent.
Monolayer CRFK cells on a 96-well plate were washed with PBS one time and then the diluted virus solution was inoculated (50 μl/well). After incubation with a CO2 incubator for adsorption and penetration of the virus for 1 hour, the cells were washed with PBS one time, and then a maintenance solution (the same as the diluent) was added (100 μL/well), followed by culture. Three days after, the cells were fixed and stained after extension of CPE, and a 50% infectious dose (unit: 50% tissue culture infectious dose [TCID50]) was calculated using a Behrens-Kaerber method to measure viral infectivity.

[3] = Measurement of pH of the reagents; type: physicochemical; conditions: summary Table 9
Excerpt: Also, the experiment was repeated to confirm reproducibility.

Rotavirus Wa Strain = experiment: Rotavirus infectivity after reagent treatment (fluorescent staining of MA104 cells); conditions: equal amounts of virus and reagent, 3 minutes at room temperature; for Residual infectivity after treatment: MA104 cells
Description: Equal amounts (35 μL) of a virus solution and a reagent were mixed, followed by reaction at room temperature for 3 minutes. A 10-fold dilution series was formed using a diluent (MEM) and the MA104 cells on a cover slip (9×28 mm) were infected with 50 μL of the virus solution. After adsorption for 1 hour, the cells were washed with PBS one time and a growth medium (10% PBS-MEM) was added, followed by culture.
One day after, fluorescent staining was performed with anti-rotavirus antibody (monoclonal antibody: Abgene REMEI-1) and Alexa Fluor 488-labeled anti-mouse IgG antibody (SantaCruz Biotechnology), and positive cells were counted in a field of view under a fluorescent microscope (400 times) (average area of 20 fields of view). The number of positive cells per cover slip was calculated on the basis of the area of the field of view, and further infectivity per mL of virus solution was calculated (unit: CIU (cell infecting units)/ml; Kiyotani et al., Virology 177:65-74, 1990). When the number of positive cells was small, the positive cells were measured by observing the whole of the cover slip.

[4] = equal amounts of virus and reagent, 3 minutes at room temperature
[5] = equal amounts of virus and reagent, 3 minutes at room temperature, FL cells

SMILES	Anti-Coxsackie virus activity (in words) [1]	Effect (times) (to PBS) [1, 4]	Infectivity ratio (to PBS) [1, 4]	Infectivity (TCID50/ml) [1, 5] [TCID50/ml]	Inactivation activity for adenovirus (in words) [2]	Effect (times) (to PBS) [2, 4]	Infectivity ratio (to PBS) [2, 4]	Residual infectivity after treatment [2, 5] [CIU/ml]	Effect (times) (to PBS) (Feline calicivirus)	Infectivity ratio (to PBS) (Feline calicivirus)	Infectivity (TCID50/ml) (Feline calicivirus; CRFK cells)	pH [3]	Infectivity ratio (to PBS) (Rotavirus Wa Strain)	Residual infectivity after treatment (Rotavirus Wa Strain) [CIU/ml]
CCO [50% (v/v) ethanol, ethanol]	no anti-Coxsackie virus activity	1	1.778	3.2E+07	no inactivation ability	4	0.2	7.7E+07	12	0.09	3.2E+07	5.09	0.06	6.2E+05
CCO [80% (v/v) ethanol, ethanol]	–	–	–	–	–	–	–	–	–	–	–	–	0	0
